The values that follow come from patent publication US20210177819A1, “METHODS AND COMPOSITIONS FOR MODULATING CALCIUM CHANNELS” (Northwestern University, priority 2005, published 2021).

In this experiment the test system is SNc dopaminergic neurons. Briefly: Whole cell patch clamp recordings of pacemaking in dopaminergic neurons in brain slices. The experiment is classed as cell-based, mouse. For orientation: In patch-clamp work, channel activity is measured electrically.

Entries after “also recorded” stand apart in the source; their conditions may differ.

`COCCOC(=O)C1=C(C)NC(C)=C(C(=O)OC(C)C)C1c1cccc([N+](=O)[O-])c1` (stereo not drawn) [nimodipine, isopropyl 2-methoxyethyl 1,4-dihydro-2,6-dimethyl-4-(m-nitrophenyl)-3,5-pyridinedicarboxylate]: the “effect on autonomous pacemaking of dopaminergic neurons” value (tissue slice from an adult, FIG. 1) was “inhibits autonomous pacemaking of dopaminergic neurons”.

On to `COC(=O)C1=C(C)NC(C)=C(C(=O)OC(C)C)C1c1cccc2nonc12` (stereo not drawn) [isradipine, 3,5-pyridinedicarboxylic acid, 4-(4-benzofurazanyl)-1,4-dihydro-2,6-dimethyl-, methyl 1-methylethyl ester], for which the “effect of sustained blockade on pacemaking (altered pacemaking mechanism)” value (adult SNc dopaminergic neuron, before, during and after application, FIG. 4) was “altered pacemaking mechanism can be elicited; also recorded: restores pacemaking and dopaminergic neuron cell function through an altered pacemaking mechanism”.

For `NC1=N[C@H](O)[C@H]2[C@H]3O[C@]4(O)O[C@@H]([C@@H](O)[C@@]2(N1)[C@@H]4O)[C@]3(O)CO` [tetrodotoxin], the “effect of blockade of TTX sensitive sodium channels on spikes and oscillations” value was “eliminates spikes but not the underlying oscillations that drive pacemaking”.
